Experimental data: patent US8362248B2, “Substituted pyridinyl and pyrimidinyl derivatives as modulators of metabolism and the treatment of disorders related thereto” (Arena Pharmaceuticals, Inc., priority 2005, dated 2013)
≈ marks a conversion by molar mass, not a printed value. Where two headings read alike, the source gives them in different places. One block for each molecule: values may come before it.

Assays:
RUP3 = target: T1, RUP3 (Homo sapiens, UniProt Q8TDV5); assay: RUP3 dose responses in melanophores (melanophore dispersion assay); assay type: cell-based
T1 construct: ID; No:2; expressed in transfected cells; host or cells: melanophores (cultured as per Potenza and Lerner 1992), electroporated
T1 sequence (Q8TDV5 with tags, fused parts or gaps): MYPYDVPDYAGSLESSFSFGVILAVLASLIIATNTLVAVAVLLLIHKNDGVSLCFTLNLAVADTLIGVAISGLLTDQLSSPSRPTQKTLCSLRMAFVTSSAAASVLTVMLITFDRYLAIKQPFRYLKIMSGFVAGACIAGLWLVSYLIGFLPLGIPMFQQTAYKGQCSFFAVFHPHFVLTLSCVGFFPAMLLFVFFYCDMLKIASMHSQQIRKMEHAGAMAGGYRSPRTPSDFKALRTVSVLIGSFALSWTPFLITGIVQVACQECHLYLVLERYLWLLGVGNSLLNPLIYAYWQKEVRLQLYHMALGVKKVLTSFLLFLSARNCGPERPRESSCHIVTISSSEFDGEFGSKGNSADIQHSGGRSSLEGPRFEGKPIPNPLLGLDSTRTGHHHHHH
Experimental: Melanophores are maintained in culture as reported by Potenza, M. N. and Lerner, M. R., in Pigment Cell Research, Vol. 5, 372-378, 1992 and transfected with the RUP3 expression vector (pCMV) using electroporation. Following electroporation, the transfected cells are plated into 96 well plates for the assay. The cells are then allowed to grow for 48 hours in order to both recover from the electroporation procedure and attain maximal receptor expression levels.
On the assay day, the growth medium on the cells is replaced with serum-free buffer containing 10 nM melatonin. The melatonin acts via an endogenous Gi-coupled GPCR in the melanophores to lower intracellular cAMP levels. In response to lowered cAMP levels, the melanophores translocate their pigment to the center of the cell. The net effect of this is a significant decrease in the absorbance reading of the cell monolayer in the well, measured at […].
After a 1-hour incubation in melatonin, the cells become completely pigment-aggregated. At this point a baseline absorbance reading is collected. Serial dilutions of test compounds are then added to the plate and compounds that stimulate RUP3 produce increases in intracellular cAMP levels. In response to these increased cAMP levels, the melanophores translocate their pigment back into the cell periphery. After one hour, stimulated cells are fully pigment-dispersed. The cell monolayer in the dispersed state absorbs much more light in the 600-650 nm range. The measured increase in absorbance compared to the baseline reading allows one to quantitate the degree of receptor stimulation and plot a dose-response curve.
The compounds in the above examples were screened using the melanophore dispersion assay, as described above.

Male C57b1/6J mice = assay: Oral glucose tolerance test (oGTT) in mice; assay type: in vivo; details: for lowering of blood glucose in oGTT (in words): mice after challenge with glucose; for Mean % Inhibition of Glucose Excursion: oGTT, mice, p.o.
Experimental: A. Oral Glucose tolerance test (oGTT)
[…] Compounds were delivered orally via a gavage needle (p.o., volume 10 mL/Kg). At time 0, levels of blood glucose were assessed using a glucometer (Elite XL, Bayer), and mice were administered either vehicle (20% hydroxypropyl-beta-cyclodextrin) or test compound. Thirty minutes after administration of test compound, levels of blood glucose were again assessed, and mice were administered dextrose orally at a dose of 3 g/Kg. Blood glucose measurements were then taken 20 min, 40 min, 60 min and 120 min after this time.

Aqueous solubility = assay type: physicochemical; details: aqueous medium, aqueous buffer
[1] = Rat dose-range PK study (dose escalation pharmacokinetics); assay type: in vivo
Experimental: Animal, Compound Formulation, Dosing, and Blood Sample Collection: […]
Male SD rats (250-300 g) were purchased from Charles River Laboratory; upon reciept, animals were placed under light-dark cycle (6:30 am-6:30 pm lights on). They were allowed ad libitum access to water and 4 pieces of food daily (Purina Meals Rodent Diet, Product Number 5001).
Compound formulations were prepared as following: The IV injection formulation was prepared in 20% hydroxypropyl-beta-cyclodextrin with concentration of […]. The PO formulations were prepared in 0.5% hydroxypropyl methylcellulose with concentrations of […]. […]
Plasma samples were prepared as follows. […] Calibration standards were typically prepared in the range of 2.0 ng/mL to 10 μg/mL with linear regression for quantitation. […]
Results were calculated by noncompartmental analysis using WinNonlin Pro version 3.1 based on plasma concentration—time profiles for individual animals. Plasma levels were determined as described above and the oral and intravenous area under the concentration vs. time curve (AUC was calculated using the linear trapezoidal rule up to the last measurable concentration and was then extrapolated to infinity) were compared to determine the % bioavailability (% F) by the following formula: Dose (IV)*AUC (oral)/Dose (oral)*AUC (IV). […]

[2] = melanophore dispersion assay, read-out: RUP3 (EC50)

SMILES: COc1cc(S(C)(=O)=O)ccc1Nc1ncnc(OC2CCN(C(=O)OC(C)C)CC2)c1OC [Compound 10, 4-[6-(4-Methanesulfonyl-2-methoxy-phenylamino)-5-methoxy-pyrimidin-4-yloxy]-piperidine-1-carboxylic acid isopropyl ester]
- EC50 (RUP3; [2]): 26 nM

SMILES: COc1c(Nc2ccc(S(C)(=O)=O)cc2F)ncnc1OC1CCN(C(=O)OC(C)C)CC1 [Compound 24, 4-[6-(2-Fluoro-4-methanesulfonyl-phenylamino)-5-methoxy-pyrimidin-4-yloxy]-piperidine-1-carboxylic acid isopropyl ester]
- EC50 (RUP3; [2]): 0.49 nM

SMILES: CCOc1cc(F)c(Nc2ncnc(OC3CCN(C(=O)OC(C)C)CC3)c2OC)cc1F [Compound 75, 4-[6-(4-Ethoxy-2,5-difluoro-phenylamino)-5-methoxy-pyrimidin-4-yloxy]-piperidine-1-carboxylic acid isopropyl ester]
- lowering of blood glucose in oGTT (in words) (Male C57b1/6J mice): lowered blood glucose in a dose-dependent manner
- Mean % Inhibition of Glucose Excursion (Male C57b1/6J mice; dose 3 mg/Kg): 22%
- Mean % Inhibition of Glucose Excursion (Male C57b1/6J mice; dose 10 mg/Kg): 34%

SMILES: COc1c(Oc2ccc(S(C)(=O)=O)cc2F)ncnc1OC1CCN(C(=O)OC(C)C)CC1 [Compound 76, 4-[6-(2-Fluoro-4-methanesulfonyl-phenoxy)-5-methoxy-pyrimidin-4-yloxy]-piperidine-1-carboxylic acid isopropyl ester]
- EC50 (RUP3; [2]): 2.51 nM

- solubility (Aqueous solubility; pH=2): 1120 µg/mL (≈ 2330 µM)
- solubility (Aqueous solubility; pH=5): 190 µg/mL (≈ 395 µM)
SMILES: COc1c(OC2CCN(C(=O)OC(C)C)CC2)ccnc1Nc1ccc(S(C)(=O)=O)cc1F [Compound 77, 4-[2-(2-Fluoro-4-methanesulfonyl-phenylamino)-3-methoxy-pyridin-4-yloxy]-piperidine-1-carboxylic acid isopropyl ester]

- solubility (Aqueous solubility; pH=2): 1450 µg/mL (≈ 3150 µM)
- solubility (Aqueous solubility; pH=5): 380 µg/mL (≈ 825 µM)
SMILES: COc1c(Nc2ccc(NCCO)nc2C)ncnc1OC1CCN(C(=O)OC(C)C)CC1 [Compound 78, 4-{6-[6-(2-Hydroxy-ethylamino)-2-methyl-pyridin-3-ylamino]-5-methoxy-pyrimidin-4-yloxy}-piperidine-1-carboxylic acid isopropyl ester]

SMILES: COc1c(Nc2ccc(S(C)(=O)=O)nc2C)ncnc1OC1CCN(C(=O)OC(C)C)CC1 [Compound 84, 4-[6-(6-Methanesulfonyl-2-methyl-pyridin-3-ylamino)-5-methoxy-pyrimidin-4-yloxy]-piperidine-1-carboxylic acid isopropyl ester]
- reduction in AUC (blood glucose, oGTT) (Male C57b1/6J mice; Experiment 1, 30 mpk): 38%
- reduction in AUC (blood glucose, oGTT) (Male C57b1/6J mice; Experiment 2, 30 mpk): 84%
- lowering of blood glucose in oGTT (in words) (Male C57b1/6J mice): able to lower blood glucose
- EC50 (RUP3): 3.55 nM
- agonist activity at the RUP3 receptor (in words) (RUP3): potent agonist
- dose escalation pharmacokinetics, AUC vs dose (in words) ([1]; FIG. 5): linear dose escalation pharmacokinetics
- dose escalation pharmacokinetics, AUC vs dose (in words) ([1]; FIG. 5, listed as 4-[6-(6-Methanesulfonyl-2-methyl-pyridin-3-ylamino)-5-methoxy-pyrimidin-4-yloxy]): essentially linear dose escalation pharmacokinetics
